The test system of data set [1] is Human immunodeficiency virus 1. The data set can be described thus: Antiviral activity against HIV1 3B infected in human CD4+ T-lymphocyte CEM cells assessed as inhibition of virus-induced cytopathicity after 4 to 5 days by microscopic analysis. In kind it is functional, organism-based. As to conditions: Human immunodeficiency virus 1, 3B, CCRF-CEM.
The subject of data set [2] is CCRF-CEM. The data set is described as follows: Cytotoxicity against human CD4+ T-lymphocyte CEM cells. In kind it is cell-based.
Data set [3] deals with Human immunodeficiency virus 2. The data set can be described thus: Antiviral activity against HIV2 ROD infected in human CD4+ T-lymphocyte CEM cells assessed as inhibition of virus-induced cytopathicity after 4 to 5 days by microscopic analysis. As to conditions: Human immunodeficiency virus 2, ISOLATE ROD, CCRF-CEM. In kind it is functional, organism-based. (In general: Damage to the host cells serves as the signal in cytopathic effect assays.)

Data set [4] relates to Human immunodeficiency virus 1. The data set is described as follows: Binding affinity to recombinant HIV1 3B glycoprotein-120 after 5 mins by sensorchip direct surface plasmon resonance assay.
Data set [5] relates to Human immunodeficiency virus 1. The data set is described as follows: Binding affinity to recombinant HIV1 3B glycoprotein-120 at 5 uM after 5 mins by sensorchip direct surface plasmon resonance assay in presence of 100 and 400 uM mann (alpha-1,2)3. A general note: In SPR one partner is held on a chip, and binding of the other changes the refractive index at the surface.
The test system of data set [6] is Human immunodeficiency virus 1. The data set can be described thus: Binding affinity to recombinant HIV1 3B glycoprotein-120 at 5 uM after 5 mins by sensorchip direct surface plasmon resonance assay in presence of 100 and 400 uM mann (alpha-1,3-1,6)3.
The nature of data set [7]: Inhibition of HIV integrase-mediated 3'-processing activity using 5'-[gamma-32P]-labeled full length 21T DNA after 2 hrs. More on the design: species or system Human immunodeficiency virus.
Data set [8] is described as follows: Inhibition of HIV integrase-mediated strand transfer activity using precleaved 19T duplex oligonucleotide after 2 hrs. Also noted: species or system Human immunodeficiency virus.
Data set [9] concerns Human immunodeficiency virus 1. The data set can be described thus: Binding affinity to recombinant HIV1 3B glycoprotein-120 after 5 mins by sensorchip reverse surface plasmon resonance assay.
Data set [10] concerns Human immunodeficiency virus. The data set can be described thus: Inhibition of HIV integrase-mediated strand transfer activity using 5'-[gamma-32P]-labeled full length 21T DNA at 50 nM after 2 hrs.

Structures are written as SMILES. pEC50, pIC50: −log10 of the molar value. Active and inactive are the calls of the source. The rule behind the calls is not given here.

As to `CN[C@@H]1[C@H](O[C@@H]2OC[C@@H](O)[C@H](O)[C@H]2O)[C@@H](O)[C@H](O[C@H]2c3cc(C)c(C(=O)N[C@H](C)C(=O)O)c(O)c3-c3c(cc4c(c3O)C(=O)c3cc(OC)cc(O)c3C4=O)[C@@H]2O)O[C@@H]1C` [PRADIMICIN A], the negative logarithm of the EC50 (pEC50) – broadly, the EC50 on a negative log10 scale, so that one unit is a factor of ten – in data set [1] was 5.47. Also, the CC50 (usually the concentration at which the toxic effect on the cells reaches its halfway point) in data set [2] was more than 50 µM.
Consider `CCc1c(CNC(=O)c2cc(O)c(O)c(O)c2)c(CC)c(CNC(=O)c2cc(O)c(O)c(O)c2)c(CC)c1CNC(=O)c1cc(O)c(O)c(O)c1`, for which the pEC50 in [1] and in data set [3] was less than 5.00 each time. The compound further gave a CC50 in data set [2] of 49 µM.
As to `CCc1c(CNC(=O)C2=C[C@H](O)[C@H](O)[C@@H](O)C2)c(CC)c(CNC(=O)C2=C[C@H](O)[C@H](O)[C@@H](O)C2)c(CC)c1CNC(=O)C1=C[C@H](O)[C@H](O)[C@@H](O)C1`, the pEC50 in [1] and in data set [3] was less than 3.60 in each case. The compound also yielded a CC50 in data set [2] of more than 250 µM.
On to `CCc1c(CNC(=O)c2ccc(N)cc2)c(CC)c(CNC(=O)c2ccc(N)cc2)c(CC)c1CNC(=O)c1ccc(N)cc1`, for which the pEC50 in data set [1] and in data set [3] was less than 3.60 in each case. This compound also showed a CC50 in data set [2] of more than 250 µM.
`CCc1c(CNC(=O)c2ccc(N)nc2)c(CC)c(CNC(=O)c2ccc(N)nc2)c(CC)c1CNC(=O)c1ccc(N)nc1`: the pEC50 in [1] and in [3] was less than 3.60 in each case. The compound also had a CC50 in [2] of more than 250 µM.
`CCc1c(CNC(=O)CCc2ccc(O)c(O)c2)c(CC)c(CNC(=O)CCc2ccc(O)c(O)c2)c(CC)c1CNC(=O)CCc1ccc(O)c(O)c1`: the pEC50 in data set [1] and in data set [3] was less than 5.00 each time. Besides, the CC50 in [2] was determined as 22 µM.
As for `CCc1c(CNC(=O)c2ccc(O)c(O)c2O)c(CC)c(CNC(=O)[C@H]2C[C@@H](C(=O)NCc3c(CC)c(CNC(=O)c4ccc(O)c(O)c4O)c(CC)c(CNC(=O)c4ccc(O)c(O)c4O)c3CC)C[C@@H](C(=O)NCc3c(CC)c(CNC(=O)c4ccc(O)c(O)c4O)c(CC)c(CNC(=O)c4ccc(O)c(O)c4O)c3CC)C2)c(CC)c1CNC(=O)c1ccc(O)c(O)c1O`, the pEC50 in data set [1] and in data set [3] was less than 5.00 each time. This compound also came in with a CC50 in data set [2] of 25 µM.
Take `CCc1c(CNC(=O)c2ccc[nH]2)c(CC)c(CNC(=O)c2ccc[nH]2)c(CC)c1CNC(=O)c1ccc[nH]1`: the pEC50 in data set [1] and in data set [3] was less than 5.00 each time. For the same compound, the CC50 in [2] was more than 10 µM.
With `CCc1c(CNC(=O)c2cccc(O)c2O)c(CC)c(CNC(=O)c2cccc(O)c2O)c(CC)c1CNC(=O)c1cccc(O)c1O`, the pEC50 in [1] and in data set [3] was less than 5.70 throughout. For the same compound, the CC50 in [2] worked out at 5 µM.
For `CCc1c(CNCCCCNC(=O)c2ccc(O)c(O)c2O)c(CC)c(CNCCCCNC(=O)c2ccc(O)c(O)c2O)c(CC)c1CNCCCCNC(=O)c1ccc(O)c(O)c1O`, the pEC50 in [1] and in data set [3] was less than 5.00 throughout. The midpoint of cytotoxicity in [2], the CC50, lay at 25 µM.
Regarding `CCc1c(CNC(=O)c2c(O)cc(O)cc2O)c(CC)c(CNC(=O)c2c(O)cc(O)cc2O)c(CC)c1CNC(=O)c1c(O)cc(O)cc1O`, the pEC50 in data set [1] and in data set [3] was less than 4.30 each time. Moreover, in data set [2], the CC50 came to 112 µM.
With `CCc1c(CNC(=O)c2ccc(O)c(O)c2O)c(CC)c(CNC(=O)c2ccc(O)c(O)c2O)c(CC)c1CNC(=O)c1ccc(O)c(O)c1O`, the pEC50 is 5.20 in data set [1] and 4.39 in data set [3]. Also, it took 144 µM to reach half-maximal cytotoxicity in [2] (CC50). Also, the outcome in data set [4] was Active. For the same compound, the result in data set [5] and in data set [6] was inactive. Besides, the values for the pIC50 in data set [7] and in data set [8] were 4.51 and 4.96, respectively.
With `CN[C@H]1[C@@H](O[C@H]2O[C@@H](CO)[C@H](O)[C@@H](OS(=O)(=O)O)[C@@H]2O)[C@H](O)[C@@H](O[C@H]2c3cc(C)c(C(=O)N[C@H](C)C(=O)O)c(O)c3-c3c(cc4c(c3O)C(=O)c3cc(OC)cc(O)c3C4=O)[C@@H]2O)O[C@H]1C`, in data set [4], the outcome was Active.
For the compound `CCc1c(CN2CCN(C(=O)c3ccc(O)c(O)c3O)CC2)c(CC)c(CN2CCN(C(=O)c3ccc(O)c(O)c3O)CC2)c(CC)c1CN1CCN(C(=O)c2ccc(O)c(O)c2O)CC1`, the pEC50 in data set [1] and in [3] was less than 5.00 in each case. The compound also had a CC50 in [2] of 36 µM. Besides, the pIC50 (in general, the IC50 on a negative log10 scale, so that one unit is a factor of ten) was 4.38 in data set [7] and 5.25 in [8].
As to `CCc1c(CNC(=O)C2C[C@H](O)C(O)[C@@H](O)C2)c(CC)c(CNC(=O)C2C[C@H](O)C(O)[C@@H](O)C2)c(CC)c1CNC(=O)C1C[C@H](O)C(O)[C@@H](O)C1` (some centres not stated), the pEC50 in [1] and in data set [3] was less than 3.60 throughout. In data set [2], this compound registered a CC50 of more than 250 µM.
As to `CCc1c(CNC(=O)c2ccc(O)cc2O)c(CC)c(CNC(=O)c2ccc(O)cc2O)c(CC)c1CNC(=O)c1ccc(O)cc1O`, the negative-log EC50 (pEC50) in data set [1] and in [3] was less than 5.40 each time. The compound also gave a CC50 in [2] of 28 µM.
Turning to `CCc1c(CNC(=O)CCC(=O)NCCCOCCOCCOCCCN)c(CC)c(CNC(=O)c2ccc(O)c(O)c2O)c(CC)c1CNC(=O)c1ccc(O)c(O)c1O`, the result in [9] was Active.
On to `C[C@@H]1CCO[C@H]2Cn3cc(C(=O)NCc4ccc(F)cc4F)c(=O)c(O)c3C(=O)N12`, for which, in [10], the inhibition (as a rule, how much of the control response was suppressed) was more than 50%.
For the compound `CCc1c(CNCCNC(=O)c2ccc(O)c(O)c2O)c(CC)c(CNCCNC(=O)c2ccc(O)c(O)c2O)c(CC)c1CNCCNC(=O)c1ccc(O)c(O)c1O`, the pEC50 in data set [1] and in data set [3] was less than 5.00 each time. The same compound registered a CC50 in data set [2] of 117 µM.
